According to the NIST ThermoML archive (doi:10.1021/acs.jced.5b00918):
± gives the expanded uncertainty stated by the source.

Legend:
[1] = refractive index (Na D-line) (dimensionless); details: 101.33 kPa, Liquid, Standard Abbe refractometry
[2] = 101.33 kPa, Buoyancy - hydrostatic balance

Row | refractive index ([1]; 314.5 K) | mass density ([2]; 314.5 K, Liquid) [kg/m3] | refractive index ([1]; 293.2 K) | mass density ([2]; 293.2 K, Liquid) [kg/m3] | mass density ([2]; 293.2 K, Crystal) [kg/m3] | Compound
1 | 1.54182 ± 0.00051 | 1058.1 ± 0.3 | – | – | – | Oc1ccccc1 [phenol]
2 | – | – | 1.4288 ± 0.0005 | 823.6 ± 0.3 | – | CCCCCCCCO [octan-1-ol]
3 | – | – | 1.3842 ± 0.0005 | 889 ± 2 | – | CCCOC(C)=O [propyl ethanoate]
4 | – | – | 1.40065 ± 0.00054 | 811 ± 2 | – | CCCCC(C)=O [2-hexanone]
5 | – | – | – | – | 1332 ± 3 | Oc1ccc(O)cc1 [1,4-benzenediol]
